Patent publication US9586963B2 (GENFIT, priority 2011, dated 2017)

Target: T1, Rev-Erb alpha (Homo sapiens, UniProt P20393)
T1 sequence (P20393 284-614 limits assumed): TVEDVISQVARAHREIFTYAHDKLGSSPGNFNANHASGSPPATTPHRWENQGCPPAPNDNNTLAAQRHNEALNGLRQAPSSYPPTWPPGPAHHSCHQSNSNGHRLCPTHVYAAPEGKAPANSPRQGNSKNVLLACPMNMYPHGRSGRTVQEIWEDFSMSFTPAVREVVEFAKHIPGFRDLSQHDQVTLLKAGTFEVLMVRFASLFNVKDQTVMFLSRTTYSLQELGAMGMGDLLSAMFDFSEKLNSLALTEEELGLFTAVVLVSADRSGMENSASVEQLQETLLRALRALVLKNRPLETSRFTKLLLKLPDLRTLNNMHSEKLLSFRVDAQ
Assay: M2H (mammalian two-hybrid) cellular activation assay of Rev-Erb alpha
Assay type: cell-based
Details: M2H assay, HEK293 cells, Gal4-Rev-Erb alpha / VP16-NCoR, luciferase reporter
Protocol: In this system, Rev-Erb alpha or Rev-Erb beta is expressed as a fusion to the Gal4 DNA-binding domain and the cofactor NCoR is expressed as a fusion to the activation domain of the Herpes Simplex Virus tegument protein VP16. These fusion proteins were included in plasmids at a concentration of 1 μg/μL. The pBS-SK+ vector was added to the preparation to adjust the DNA quantity to a fixed value for each condition.
The transfection mix (Jet-PEI protocol, Polyplus transfection) comprised: • 3 mL of Jet PEI Mix (180 μL Jet-Pei and NaCl at 150 mM) and • 3 mL of the DNA Mix or of the DNA Mix control (wherein the Gal4-Rev-Erb alpha plasmid was replaced by a pGal4phi plasmid).
DNA Mix comprised 1.2 mL of DNA and 1.8 mL of NaCl at 150 mM with, in a T225 flask: • 90 ng of Gal4-Rev-Erb alpha, or 90 ng of Gal4-Rev-Erb beta, • 4500 ng of VP16-NCoR, • 27000 ng of Gal4-RE and • 13410 ng of pBS-SK+. Cells
HEK293 cells were cultured in DMEM (Invitrogen 41965) comprising 10% FBS, P/S, 1% glutamine, 1% pyruvate (Invitrogen 11360) and 1% amino acids (Invitrogen 11140). Cells were then batch co-transfected with plasmid vectors (described in the table above) using as Jet-PEI as reagent (Polyplus) following the protocol specified below.
The 6 mL-transfection mix was transferred in a T225 flask. HEK293 cells were then added at a concentration of 12 Millions of cells for 54 mL of medium (DMEM comprising 10% FBS and 1% P/S). Cells incubated over-night at 37° C. and under 5% CO2.
This cell-based assay is performed using 384-well Greiner white plates (Reference 781080). After the incubation, cells were rinsed with PBS, trypsinized, centrifuged and resuspended in free-serum DMEM without phenol red (Invitrogen 31053). Cells were counted and adjusted to 0.5 Million per mL and plated at a concentration of 10,000 cells in 20 μL per well. They were incubated a minimum of 4 hours at 37° C. under 5% CO2. Cells were treated with 20 μL of the compound to analyze (concentration of 2× diluted in DMEM without FBS containing a maximum of 1% DMSO) and incubated over-night (18 hours, 37° C. and 5% CO2). Each compound has been tested at 6 different concentrations to depict a dose-effect allowing the measure of biochemical parameters such as EC50 and TOP activation (%).
Cells were incubated 30 minutes with 40 μL/well of Steady Glow (Promega) and luminescence was read with TECAN Genios Pro (100 ms/w). Four experiments were carried out for each compound.
Each compound has been tested at 6 different concentrations to depict a dose-effect allowing the measure of biochemical parameters such as EC50 and TOP activation (%).
The mammalian two-hybrid system (M2H) assay consists herein in studying the ability of compounds according to the invention to activate Rev-Erbalpha in cells and thus modulate the interaction with its corepressor. The interaction of the two proteins is assessed with the help of the Luciferase reporter gene. HEK293 cells were transfected with two gene constructions: Gal4-RE VP16-NCoR and Gal4-Rev-Erbalpha or with Gal4-RE, sVP16-NCoR and Gal4-Rev-Erb beta.
The ability of compounds according to the invention of activating Rev-Erbalpha alpha or Rev-Erb beta was assessed in the described cell-based assay. EC50 and TOP activation (%) were measured.

| SMILES | EC50 [µM] |
| --- | --- |
| CN(Cc1ccccc1)Cc1ccc(Oc2ccc3nnc(Cl)n3n2)c(-c2ccccc2)c1 | 0.1 to 1 |
| CN(CCc1ccccc1)Cc1ccc(Oc2ccc3nnc(Cl)n3n2)c(-c2ccccc2)c1 | 1 to 6 |
| CN(Cc1ccc(Oc2ccc3nnc(Cl)n3n2)c(-c2ccccc2)c1)C1CCCCC1 | 1 to 6 |
| FC(F)(F)c1cccc(Oc2ccc3nnc(Cl)n3n2)c1-c1ccccc1 | < 0.1 |
| Fc1cccc(-c2cccc(Oc3ccc4nnc(Cl)n4n3)c2)c1 [Cpd.3-6, 6-(3′-fluoro-biphenyl-3-yloxy)-3-chloro-[1,2,4]triazolo[4,3-b]pyridazine] | 0.1 to 1 |
| COc1ccc(-c2cccc(Oc3ccc4nnc(Cl)n4n3)c2)cc1 [Cpd.3-7, 6-(4′-methoxy-biphenyl-3-yloxy)-3-chloro-[1,2,4]triazolo[4,3-b]pyridazine] | 1 to 6 |
| FC(F)(F)c1nnc2ccc(Oc3ccccc3-c3ccccc3)nn12 [Cpd.4-2, 6-(biphenyl-2-yloxy)-3-(trifluoromethyl)-[1,2,4]triazolo[4,3-b]pyridazine] | 0.1 to 1 |
| Fc1ccc(-c2ccccc2Oc2ccc3nnc(Cl)n3n2)c(F)c1 [Cpd.4-13, 6-(2′,4′-difluoro-biphenyl-2-yloxy)-3-chloro-[1,2,4]triazolo[4,3-b]pyridazine] | 0.1 to 1 |
| COc1cccc(-c2ccccc2Oc2ccc3nnc(Cl)n3n2)c1 [Cpd.4-16, 6-(3′-methoxy-biphenyl-2-yloxy)-3-chloro-[1,2,4]triazolo[4,3-b]pyridazine] | 0.1 to 1 |
| FC(F)(F)c1cccc(-c2ccccc2Oc2ccc3nnc(Cl)n3n2)c1 [Cpd.4-28, 6-(3′-trifluoromethyl-biphenyl-2-yloxy)-3-chloro-[1,2,4]triazolo[4,3-b]pyridazine] | 0.1 to 1 |
| Clc1cccc(-c2ccccc2Oc2ccc3nnc(Cl)n3n2)c1 [Cpd.4-29, 6-(3′-chloro-biphenyl-2-yloxy)-3-chloro-[1,2,4]triazolo[4,3-b]pyridazine] | 0.1 to 1 |
| Nc1ccc(Oc2ccc3nnc(Cl)n3n2)c(-c2ccccc2)c1 [Cpd.4-36, 6-(5-amino-biphenyl-2-yloxy)-3-chloro-[1,2,4]triazolo[4,3-b]pyridazine] | 1 to 6 |
| Oc1cccc(-c2ccc(C(F)(F)F)cc2Oc2ccc3nnc(Cl)n3n2)c1 [Cpd.4-37, 6-(3′-hydroxy-4-trifluoromethyl-biphenyl-2-yloxy)-3-chloro-[1,2,4]triazolo[4,3-b]pyridazine] | 0.1 to 1 |
| FC(F)(F)c1ccc(Oc2ccc3nnc(Cl)n3n2)c(-c2ccccc2)c1 [Cpd.4-40, 6-(5-trifluoromethyl-biphenyl-2-yloxy)-3-chloro-[1,2,4]triazolo[4,3-b]pyridazine] | 0.1 to 1 |
| O=C(c1ccccc1)c1cc(Cl)ccc1Oc1ccc2nnc(Cl)n2n1 [Cpd.4-42, (5-chloro-2-(3-chloro-[1,2,4]triazolo[4,3-b]pyridazin-6-yloxy)phenyl)(phenyl)methanone] | 1 to 6 |
| COC(=O)c1ccc(-c2ccccc2)c(Oc2ccc3nnc(Cl)n3n2)c1 [Cpd.4-43, 3-chloro-6-(4-methyloxycarbonyl-biphenyl-2-yloxy)-[1,2,4]triazolo[4,3-b]pyridazine] | < 0.1 |
| Nc1ccc(-c2ccccc2)c(Oc2ccc3nnc(Cl)n3n2)c1 [Cpd.4-48, 3-chloro-6-(4-amino-biphenyl-2-yloxy)-[1,2,4]triazolo[4,3-b]pyridazine] | 1 to 6 |
| CC(=O)Nc1ccc(-c2ccccc2)c(Oc2ccc3nnc(Cl)n3n2)c1 [Cpd.4-49, 3-chloro-6-(4-acetamido-biphenyl-2-yloxy)-[1,2,4]triazolo[4,3-b]pyridazine] | 1 to 6 |
| CNc1ccc(-c2ccccc2)c(Oc2ccc3nnc(Cl)n3n2)c1 [Cpd.4-52, 3-chloro-6-(4-N-methylamino-biphenyl-2-yloxy)-[1,2,4]triazolo[4,3-b]pyridazine] | 0.1 to 1 |
| CCCCN(CCCC)c1ccc(Oc2ccc3nnc(Cl)n3n2)c(-c2ccccc2)c1 [Cpd.4-57, 3-chloro-6-(5-dibutylamino-biphenyl-2-yloxy)-[1,2,4]triazolo[4,3-b]pyridazine] | 0.1 to 1 |
